The source of these data is ChEMBL document CHEMBL4732213, “Discovery of novel ceramide analogs with favorable pharmacokinetic properties and combination with AKT inhibitor against colon cancer” (Eur J Med Chem, 2021).

The source made the active and inactive calls. No cut-off for these calls is given here.

The test system of data set [1] is HT-29. Put plainly: Antiproliferative activity against human HT-29 cells measured after 72 hrs by sulforhodamine B assay. The note with it: HT-29, 72 h. It counts as functional, cell-based. (The SRB assay estimates cell density from bound dye.)
The next data set deals with COLO 205. Put plainly: Antiproliferative activity against human COLO 205 cells measured after 72 hrs by sulforhodamine B assay. It counts as functional, cell-based. The note with it: COLO 205, 72 h.
Data set [2] concerns COLO-678. Nature of the data set: Antiproliferative activity against human COLO 678 cells measured after 72 hrs by sulforhodamine B assay. It counts as functional, cell-based. The following applies: COLO-678, 72 h.
The test system of the next data set is HCT-8. Nature of the data set: Antiproliferative activity against human HCT8 cells measured after 72 hrs by sulforhodamine B assay. The following applies: HCT-8, 72 h. The format is functional, cell-based.
A further data set relates to Caco-2. Nature of the data set: Antiproliferative activity against human Caco2 cells measured after 72 hrs by sulforhodamine B assay. The format is functional, cell-based. The note with it: Caco-2, 72 h.
Another data set relates to GES1. Nature of the data set: Antiproliferative activity against human GES1 cells measured after 72 hrs by sulforhodamine B assay. The format is cell-based. The note with it: GES1, 72 h.
In data set [3] the test system is HT-29. Put plainly: Additive antiproliferative activity against human HT29 cells assessed as combination index at 10 uM after 72 hrs in presence of 2.5 uM AKT inhibitor MK2206 by Chou-Talalay method. It counts as functional.
For the next data set, the system named is SW480. Put plainly: Additive antiproliferative activity against human SW480 cells assessed as combination index at 10 uM after 72 hrs in presence of 5 uM AKT inhibitor MK2206 by Chou-Talalay method. It counts as functional.
The test system of data set [4] is COLO-678. Nature of the data set: Additive antiproliferative activity against human COLO-678 cells assessed as combination index at 10 uM after 72 hrs in presence of 2.5 uM AKT inhibitor MK2206 by Chou-Talalay method. It counts as functional.
For data set [5], the system named is COLO-678. Put plainly: Additive antiproliferative activity against human COLO-678 cells assessed as combination index at 20 uM after 72 hrs in presence of 5 uM AKT inhibitor MK2206 by Chou-Talalay method. The format is functional.
In another data set the test system is T84. Put plainly: Synergistic antiproliferative activity against human T84 cells assessed as combination index at 20 uM after 72 hrs in presence of 10 uM AKT inhibitor MK2206 by Chou-Talalay method. It counts as functional.
Data set [6] concerns HT-29. Put plainly: Induction of apoptosis in human HT29 cells at 15 uM after 48 hrs in presence of 7.5 uM AKT inhibitor MK2206 by Annexin-V-FITC/PI staining based flow cytometric analysis. The format is functional.
For data set [7], the system named is HT-29. Nature of the data set: Induction of ROS generation in human HT29 cells at 20 uM after 16 hrs by flow cytometric analysis. The format is functional, cell-based. (Flow cytometry measures light scatter and fluorescence of single cells or particles in a stream.)
Data set [8] has as its system HT-29. Nature of the data set: Induction of apoptosis in human HT29 cells assessed as inhibition of AKT phosphorylation at 20 uM after 48 hrs by Western blotting analysis. The format is functional, cell-based. (In general: A western blot detects proteins with antibodies after separation by electrophoresis.)
For data set [9], the system named is HT-29. Nature of the data set: Induction of apoptosis in human HT29 cells assessed as increase in caspase-3 activity at 20 uM after 24 hrs in presence of 10 uM AKT inhibitor MK2206 by Western blot analysis. The format is functional, cell-based.
In data set [10] the test system is HT-29. Nature of the data set: Down regulation of p-RB expression in human HT29 cells at 20 uM incubated for 24 hrs by Western blotting analysis. The format is functional, cell-based.
Data set [11] concerns HT-29. Put plainly: Down regulation of cyclin A expression in human HT29 cells at 20 uM incubated for 24 hrs in presence of 10 uM AKT inhibitor MK2206 by Western blotting analysis. The format is functional, cell-based.
For data set [12], the system named is HT-29. Put plainly: Down regulation of CDK4 expression in human HT29 cells at 20 uM incubated for 24 hrs in presence of 10 uM AKT inhibitor MK2206 by Western blotting analysis. It counts as functional, cell-based.
Data set [13] has as its system HT-29. Nature of the data set: Down regulation of CDK6 expression in human HT29 cells at 20 uM incubated for 24 hrs in presence of 10 uM AKT inhibitor MK2206 by Western blotting analysis. It counts as functional, cell-based.
Data set [14] is described as follows: AUC(0 to t) in BALB/c mouse at 50 mg/kg, ip. More on the design: dose 50 mg/kg. It counts as ADME, organism-based. The following applies: in vivo.
Data set [15] is described as follows: AUC(0 to infinity) in BALB/c mouse at 10 mg/kg, iv. It counts as ADME, organism-based. The arrangement: route intravenous, time infinity, dose 10 mg/kg. The following applies: in vivo.
Data set [16] in a line: Half life in BALB/c mouse at 50 mg/kg, ip. It counts as ADME, organism-based. The following applies: in vivo.

What is called IC50 is the concentration that gives 50% inhibition. Low values mean higher potency, high ones lower potency. Usually AUC(0-t) stands for exposure summed from dosing to a finite time, without extrapolation to infinity. Low readings indicate low exposure, high ones high exposure. Broadly, the AUC(0-inf) is the area under the concentration-time curve extrapolated to infinity. A higher AUC(0-inf) goes with high exposure. By half-life is commonly meant how long it takes for the measured level to halve. In the case of `CCCCCCCOc1ccc(CCC(CO)(CO)NC(C)=O)c2ccccc12`, the IC50 with HT-29 [1] stood at 17.6 µM; with COLO 205, 18.3 µM; in the data set with COLO-678 [2] it was 20.7 µM; in the data set on HCT-8 it was 21.8 µM; in the data set with Caco-2, 28 µM; in the data set on GES1 it was 41.8 µM. Moreover, the CI in the data set with HT-29 [3] was 1.05; in the data set on SW480 it was 0.9; with COLO-678 [4], 0.87; in the data set on COLO-678 [5], 0.89; in the data set with T84 it was 0.65. Moreover, the Activity with HT-29 [6] is 40%. Further, the outcome in the data set on HT-29 [7] and with HT-29 [10] was inactive. In addition, the outcome with HT-29 [8], in the data set with HT-29 [9], with HT-29 [11], in the data set on HT-29 [12] and in the data set with HT-29 [13] was Active. The molecule also came in with an AUC(0-t) in [14] of 15600 ng·h/mL. The molecule also displayed an AUC(0-inf) in data set [15] of 3060 ng·h/mL. The half-life in [16] is 3.3 h.
